Assay [1] concerns Cortical neurone. Nature of the assay: Protective effect against L-glutamate-induced neurotoxicity in rat primary cortical neurons at 10 uM by trypan blue exclusion method. The format is functional.
Assay [2] relates to Cortical neurone. Nature of the assay: Protective effect against L-glutamate-induced neurotoxicity in rat primary cortical neurons at 1 uM by trypan blue exclusion method. The format is functional.

This is an account of results in ChEMBL document CHEMBL1137236, “Synthesis and neuroprotective effects of serofendic acid analogues” (2006).

Compound `C[S+]([O-])CC1C[C@]23CC[C@H]1C[C@H]2[C@]1(C)CCC[C@@](C)(C(=O)O)[C@H]1CC3` (stereo partly specified) registered an Activity in assay [1] of 18.1%.

In turn, `CSC[C@H]1[C@H]2CC[C@@]3(CC[C@H]4[C@@](C)(CCC[C@@]4(C)C(=O)O)[C@@H]3C2)[C@@H]1O` had an Activity in assay [1] of 39.8%. `C[S+]([O-])C[C@H]1[C@H]2CC[C@@]3(CC[C@@H]4[C@](C)(CO)CCC[C@@]4(C)[C@@H]3C2)[C@@H]1O` (stereo partly specified) yielded an Activity in assay [1] of 7.79%. On the same count and under the same terms, to `C[S+]([O-])C[C@H]1[C@H]2CC[C@@]3(CC[C@@H]4C(C)(C)CCC[C@@]4(C)[C@@H]3C2)[C@@H]1O` (stereo partly specified) belongs 13.1%; to `C[S+]([O-])CC1=C[C@]23CC[C@H]1C[C@H]2[C@]1(C)CCC[C@@](C)(C(=O)O)[C@H]1CC3` (stereo partly specified), 15.6%; to `COC(=O)[C@]1(C)CCC[C@@]2(C)[C@@H]3C[C@@H]4CC[C@@]3(CC[C@@H]21)[C@H](O)[C@H]4C[S+](C)[O-]` (stereo partly specified), 20.5%. With `C[S+]([O-])C[C@@H]1C(=O)[C@]23CC[C@H]1C[C@H]2[C@]1(C)CCC[C@@](C)(C(=O)O)[C@H]1CC3` (stereo partly specified), in assay [1], the Activity was found to be 41.5%. On the same count and under the same terms, to `C[S+]([O-])C[C@@H]1[C@H]2CC[C@@]3(CC[C@H]4[C@@](C)(CCC[C@@]4(C)C(=O)O)[C@@H]3C2)[C@H]1O` (stereo partly specified) belongs 33.7%.

`C[C@@]12CCC[C@@](C)(C(=O)O)[C@H]1CC[C@@]13CC[C@@H](C[C@@H]21)[C@H](CS(C)(=O)=O)[C@H]3O` yielded an Activity in assay [1] of 20%. For the compound `C[C@]12N[C@H](Cc3ccccc31)c1ccccc12.O=C(O)/C=C\C(=O)O` [DIZOCILPINE MALEATE], the Activity in assay [2] was found to be 80.7%. The compound `C[S+]([O-])C[C@H]1[C@H]2CC[C@@]3(CC[C@H]4[C@@](C)(CCC[C@@]4(C)C(=O)O)[C@@H]3C2)[C@@H]1O` (stereo partly specified) [SEROFENDIC ACID] gave an Activity in assay [1] of 45.3%.
